# Assay results: patent US10669310B2, “Peptide for cancer treatment and pharmaceutical composition containing same” (TOKUSHIMA UNIVERSITY, priority 2016, dated 2020)
# Columns and labels:
# MCF-7 cells = type: cell-based, human
# Method: (§1) Human breast cancer cell line MCF-7 and mammary epithelial cell line MCF-10A were purchased from American Type Culture Collection (ATCC, Manassas, Va., USA). Breast cancer cell line KPL-3C (J. Kurebayashi, et al., Br. J. Cancer 74, 200-207 (1996)) was kindly provided by Dr. Junichi Kurebayashi (Kawasaki Medical School). All cell lines were monolayer cultured in an appropriate medium supplemented with 10% FBS. The cells were maintained at 37° C. under humidified atmosphere containing 5% CO2.
# (§2) In each experiment, the respective cells were seeded in a 48-well plate (2×10^4 cells/mL), a 6-well plate (3×10^5 cells/mL), or a 10-cm dish (2×10^6 cells/10 mL). MCF-7 cells were seeded in MEM (Thermo Fisher Scientific) supplemented with 10% FBS (Nichirei Biosciences Inc., Tokyo, Japan), 1% Antibiotic/Antimycotic solution (Thermo Fisher Scientific, Waltham, Mass., USA), 0.1 mM NEAA (Thermo Fisher Scientific), 1 mM sodium pyruvate (Thermo Fisher Scientific), and 10 μg/mL insulin (Sigma, St. Louis, Mo., USA). KPL-3C cells were seeded in RPMI (Thermo Fisher Scientific) supplemented with 10% FBS and 1% Antibiotic/Antimycotic solution. MCF-10A cells were seeded in MEBM (Lonza) supplemented with a Single Quots kit (BPE, hydrocortisone, hEGF, insulin, gentamycin/amphoterin-B) (Lonza, Walkersville, Md., USA) and 100 ng/mL cholera toxin. For 17β-estradiol (E2) (Sigma) stimulation, the media for MCF-7 and KPL-3C were changed to phenol red-free DMEM/F12 (Thermo Fisher Scientific) supplemented with 10% FBS, 1% Antibiotic/Antimycotic solution, 0.1 mM NEAA, 1 mM sodium pyruvate, and 10 μg/mL insulin on the day after seeding. Twenty-four hours later, the cells were treated with 10 nM E2 and a peptide (for example, 11R-ERAP or a stapled ERAP), or with 10 nM E2 alone.
# When carrying out treatment with tamoxifen (Sigma) or fulvestrant (LKT laboratories, St. Paul, Minn., USA), cells were treated with 10 nM tamoxifen or 2 μM fulvestrant simultaneously with the above-mentioned treatment with E2 and a peptide or with E2 alone.
# Cell growth assays on MCF-7, KPL-3C, and MCF-10A were carried out as described previously using a Cell Counting Kit-8 (CCK-8) (Dojindo, Kumamoto, Japan) (T. Yoshimaru, et al., Nat. Commun. 4, 2443 (2013)). The data are shown by mean±SE of three independent experiments.
# MCF-10A cells = assay: Cell growth (MTT) assay, MCF-10A cells; type: cell-based, human; conditions: normal mammary epithelial cells, ERα-negative and BIG3-negative
# Method: as §1
# as §2, with “For 17β-estradiol (E2) (Sigma) stimulation, the media for MCF-7 and KPL-3C were changed to phenol red-free DMEM/F12 (Thermo Fisher Scientific) supplemented with 10% FBS, 1% Antibiotic/Antimycotic solution, 0.1 mM NEAA, 1 mM sodium pyruvate, and 10 μg/mL insulin on the day after seeding. Twenty-four hours later, the cells were treated with 10 nM E2 and a peptide (for example, 11R-ERAP or a stapled ERAP), or with 10 nM E2 alone.” left out
# BIG3-PHB2 interaction = target: T1, BIG3-PHB2 interaction (Homo sapiens, UniProt Q99623); assay: Co-immunoprecipitation with anti-BIG3 antibody in MCF-7 cells; type: cell-based; conditions: MCF-7, 1 μM, 24 hours after treatment
# T1 construct: complex formation between the endogenous BIG3 and PHB2 in ERα-positive breast cancer cell line MCF-7; endogenous in cells; host or cells: MCF-7
# Method: Immunoblot analyses were performed as described previously (T. Yoshimaru, et al., Nat. Commun. 4, 2443 (2013)). After performing SDS-PAGE, the membranes blotted with proteins were blocked with 4% BlockAce solution (Dainippon Pharmaceutical, Osaka, Japan) for three hours and then incubated with antibodies against the following proteins: BIG3 (1:1,000) (T. Yoshimaru, et al., Nat. Commun. 4, 2443 (2013)); PHB2 (1:1,000) (Abeam, Cambridge, UK); Akt, phosphorylated Akt (S473) (587F11, 1:1,000); p44/42 MAPK, phosphorylated p44/42 MAPK (T202/Y204) (1:1,000); α/β-tubulin (1:1,000) (Cell Signaling Technology, Danvers, Mass., USA); and LMNB1 (1:100) (Sigma). After incubation with an HRP-labeled secondary antibody (anti-mouse IgG-HRP, 1:5,000; anti-rat IgG-HRP; 1:5,000; or anti-rabbit IgG-HRP, 1:1,000) (Santa Cruz Biotechnology, Dallas, Tex., USA) for one hour, the blots were developed with an Enhanced Chemiluminescence (ECL) system (GE Healthcare, Buckinghamshire, UK) and scanned using an Image Reader LAS-3000 mini (Fujifilm, Tokyo, Japan). All the experiments were performed at least in triplicate.
# Immunoprecipitation analysis was performed as described previously (T. Yoshimaru, et al., Nat. Commun. 4, 2443 (2013)). Cell lysates were pre-cleared with normal IgG and rec-Protein G Sepharose 4B (Thermo Fisher Scientific) at 4° C. for three hours. Then, the supernatants were incubated with 5 μg of an antibody against BIG3 or an antibody against PHB2 at 4° C. for twelve hours. Next, the antigen-antibody complexes were precipitated using rec-Protein G Sepharose 4B at 4° C. for one hour. The immunoprecipitated protein complexes were washed several times with a lysis buffer. Then, SDS-PAGE and immunoblot analyses were carried out as described above.
# [1] = tested on: KPL-3C orthotopic breast cancer xenografts; assay: In vivo tumor growth inhibition, KPL-3C orthotopic xenograft, intraperitoneal; set-up: species or system BALB/c nude mice; conditions: 1 mg/kg or 0.1 mg/kg i.p. every four or seven days, up to 28 days
# Method: KPL-3C cell suspensions (1×10^7 cells/mouse) were mixed with an equal volume of Matrigel (BD) and injected (200 μL in total) into the mammary fat pads of 6-week-old female BALB/c nude mice (Charles River Laboratories, Tokyo, Japan). The mice were housed in a pathogen-free isolation facility with a twelve-hour light/dark cycle and were fed solid rodent chow and water ad libitum. The tumors developed over several days and reached sizes of approximately 100 mm^3 [calculated as ½×(width×length^2)]. The mice were randomized into the following eleven treatment groups (five heads per group):
# E2 was administered via application of a solution to the neck skin, and regarding the other treatments, administration was performed via intraperitoneal injection unless other administration methods are stated. The tumor volume was measured with calipers for 28 days, and then the mice were subjected to scheduled sacrifice to remove tumors. All the experiments were performed in accordance with the guidelines of the animal facility at Tokushima University.
# [2] = tested on: ERα target genes TFF1 and CCND1; assay: ERα target gene expression in removed tumors; type: in vivo, BALB/c nude mice; conditions: 0.02, 0.1 or 1 mg/kg i.p. every four days or every seven days
# Method: The expression of the ERα target genes (TFF1 and CCND1) was evaluated by real-time RT-PCR as described previously (T. Yoshimaru, et al., Nat. Commun. 4, 2443 (2013)). Each sample was normalized to the β2-MG mRNA content, and the results were expressed as multiples (-fold) of the expression level in untreated cells, with that level being defined as 1.0. The data represent the mean±SD of three independent experiments. The primers used for RT-PCR were as follows: […]
# T1 sequence (Q99623 2-299 limits assumed): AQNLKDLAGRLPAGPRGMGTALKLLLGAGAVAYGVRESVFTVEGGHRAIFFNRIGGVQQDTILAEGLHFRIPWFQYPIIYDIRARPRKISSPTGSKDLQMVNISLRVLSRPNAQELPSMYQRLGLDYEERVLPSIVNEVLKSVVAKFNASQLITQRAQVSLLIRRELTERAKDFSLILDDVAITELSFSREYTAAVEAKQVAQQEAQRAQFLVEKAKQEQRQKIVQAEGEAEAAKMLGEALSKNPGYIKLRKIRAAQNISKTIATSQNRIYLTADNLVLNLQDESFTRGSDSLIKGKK
smiles,measurement,setting,value
CSCC[C@@H](NC(=O)[C@H]1CCC(=O)NCCCCNC(=O)CC[C@@H](NC(=O)[C@@H](CC(C)C)NC(=O)[C@@H](CCC(N)=O)NC(=O)[C@@H](CC(C)C)NC(=O)[C@@H](CCCNC(=N)N)NC(=O)[C@@H](CCC(N)=O)NC(=O)[C@@H](CCCNC(=N)N)NC(C)=O)C(=O)N[C@H](CC(C)C)C(=O)N[C@H](CC(=O)O)C(=O)N[C@H](CO)C(=O)N1)C(=O)N[C@H](CCC(N)=O)C(N)=O [RI stapled ERAP No. 12],duration of significant cell growth inhibitory effects,"MCF-7 cells; 1 μM, E2-dependent growth of MCF-7",seven
same,IC50,MCF-7 cells; 96 h,500 nM
same,effect on MCF-10A cell growth,MCF-10A cells,not inhibited
same,inhibition of endogenous BIG3-PHB2 complex formation,BIG3-PHB2 interaction,inhibited endogenous BIG3-PHB2 complex formation
same,E2-dependent tumor growth,[1],almost fully inhibited
same,E2-dependent expression of TFF1 and CCND1 in tumors,[2],significantly suppressed
